BindingDB's records for patent US10807952 (Achillion Pharmaceuticals, Inc., 2020)

target: Complement factor D (Homo sapiens, UniProt P00746); test: Not found
Excerpt: Not found

Chain of Complement factor D (P00746 whole entry): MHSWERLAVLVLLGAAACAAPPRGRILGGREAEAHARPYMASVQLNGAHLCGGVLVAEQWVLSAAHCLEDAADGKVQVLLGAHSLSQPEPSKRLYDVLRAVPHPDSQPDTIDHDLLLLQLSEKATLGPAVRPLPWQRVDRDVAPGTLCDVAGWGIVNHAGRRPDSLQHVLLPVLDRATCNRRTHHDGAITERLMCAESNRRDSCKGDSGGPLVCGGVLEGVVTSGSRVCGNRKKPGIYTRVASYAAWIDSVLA

IC50 | SMILES
< 1000 nM | CC(=O)c1nn(CC(=O)N2C[C@H](F)C[C@H]2C(=O)Nc2cccc(-c3ccc4[nH]cnc4c3Cl)c2F)c2cnccc12 [US10807952, Cmp No. 1]
< 1000 nM | NC(=O)c1nn(CC(=O)N2C[C@H](F)C[C@H]2C(=O)Nc2cccc(Br)n2)c2cc(C(F)(F)F)sc12 [US10807952, Cmp No. 34]
< 1000 nM | NC(=O)c1cccc(CC(=O)N2C[C@H](F)C[C@H]2C(=O)Nc2cccc(-c3ccccc3Cl)c2F)n1 [US10807952, Cmp No. 38]

SMILES | IC50
NC(=O)c1nn(CC(=O)N2C[C@H](F)C[C@H]2C(=O)Nc2cccc(-c3ccc4[nH]cnc4c3Cl)c2F)c2ccc(Br)cc12 [US10807952, Cmp No. 4] | < 1000 nM
NC(=O)c1nn(CC(=O)N2C[C@H](F)C[C@H]2C(=O)Nc2cccc(-c3nc4cccc(Cl)c4[nH]3)c2F)c2ccccc12 [US10807952, Cmp No. 27] | < 1000 nM
